Laboratory results published in patent publication US20240025913A1, “TERTIARY CARBOXAMIDE COMPOUNDS” (Vivace Therapeutics, Inc., priority 2020, published 2024).

The molecules below were run on 8×TBD luciferase reporter in HEK293T cells (assay: YAP Reporter Assay (firefly luciferase)). Details: Homo sapiens, HEK-293T; HEK293T cells stably transfected with 8×TBD luciferase reporter and pRLTK; 24-hr incubation; starting from 3 μM, 1:3 dilution, 10 points.
Format: cell-based
Experimental: HEK293T cells stably transfected with 8×TBD luciferase reporter and pRLTK in 384-well plates were treated with the test compounds, starting from 3 μM (final concentration in assay plate), 1:3 dilution, and 10 points in quadruplicates. Post 24-hr incubation with compounds at 37° C. and 5% CO2, cells were lysed and 8×TBD-driven firefly luciferase and control TK-driven renilla luciferase activities were measured using Promega Dual-Luciferase Reporter Assay System.
Reagents: The reagents used for this study are: DMEM: Invitrogen #11960077, Dual-Glo Luciferase Assay System: Promega-E2980, Puromycin Dihydrochloride: Invitrogen-A1113803, 384-well plate: PerkinElmer-6007480, L-GLUTAMINE: Invitrogen-25030164, Hygromycin B: Invitrogen-10687010, and Penicillin-Streptomycin: Merk-TMS-AB2-C
Media: The media used for this assay were: Culture Medium: DMEM+1 ug/mL puromycin+200 ug/mL hygromycin (with 10% FBS+1 mM L-glutamine); and Assay Medium: DMEM (with 10% FBS+1 mM L-glutamine+1×P/S).
Cell Plating: The appropriate media was warmed at 37° C. by water bath: Culture Medium, Assay Medium, 1*D-PBS, 0.05% trypsin-EDTA. The cells were trypsinized after removing all media, then washed with 1*sterile D-PBS and then with 2 ml 0.05% trypsin-EDTA. The cells were then incubated at RT for one minute. Then 10 ml/75 cm2 flask Assay Medium was added to each flask. Using a 10 ml pipette, the cells were then gently resuspended in the media, until the clumps completely disappeared. The cells were then transferred into 50 ml centrifuge tubes and were centrifuged at 800 rpm for 5 mins. The medium was removed and the cells were resuspended with Assay Medium. An aliquot of cells was used to count the cell density (cells/ml). The cell suspension was then diluted with Assay Medium to a concentration of 6×10^4 cells/ml. 50 ul cells suspension was then plated to 384-well plate (PerkinElmer-6007480), 3×10^3 cells/well and the cells were incubated in an incubator at 37° C., 5% CO2.
Compound Treatment: In the afternoon (incubation of the plate with 3-4 hrs), the test compounds were added by Echo, starting from 3 uM (final concentration in the assay plate), 1:3 dilution, 10 points, quadruplicates. The plate was placed at 37° C., 5% CO2 incubator for 24 hrs.
Detection: The Dual-Glo Luciferase Reagent was prepared by transferring the contents of one bottle of Dual-Glo Luciferase Buffer to one bottle of Dual-Glo Luciferase Substrate to create the Dual-G Luciferase Reagent. Mixing was performed by inversion until the substrate was thoroughly dissolved. After mixing, the reagent was aliquoted into 15 ml tubes. In the afternoon (24 hrs post compound treatment), the DMEM+ medium in the 384 well plates were aspirated by Microplate Washer.
Measuring firefly luciferase activity: 20 ul Dual-Glo Luciferase Reagent was added to the 384-well plates. The plates were protected from light to prevent interference with the assay. The plates were shaken for […] followed centrifuging plates at 1000 rpm for 30 seconds. After waiting at least 10 minutes, the firefly luminescence was measured by Envision.
Measuring renilla luciferase activity: 20 ul Stop-Glo Reagent was added to the 384-well plates. The plates were shaken for […] and then centrifuged at 1000 rpm for 30 seconds. After waiting at least 10 minutes, the renilla luminescence was measured by Envision.
Compound IC50 and maximum inhibition on the firefly luciferase and renilla luciferase activities were reported separately.
With O=C(c1ccc2c(Oc3ccc(C(F)(F)F)cc3)cccc2c1)N1CC(NCCF)C1 [Compound 31, (3-((2-Fluoroethyl)amino)azetidin-1-yl)(5-(4-(trifluoromethyl)phenoxy)naphthalen-2-yl)methanone] the IC50 was 100 to 1000 nM.
With O=C(c1ccc2c(Oc3ccc(C(F)(F)F)cc3)cccc2c1)N1CC(NCC(F)F)C1 [Compound 32, (3-((2,2-Difluoroethyl)amino)azetidin-1-yl)(5-(4-(trifluoromethyl)phenoxy)naphthalen-2-yl)methanone] the IC50 was 100 to 1000 nM.
Work on CCNCC1CN(C(=O)c2ccc3c(Oc4ccc(C(F)(F)F)cc4)cccc3c2)C1 [Compound 33, (3-((Ethylamino)methyl)azetidin-1-yl)(5-(4-(trifluoromethyl)phenoxy)naphthalen-2-yl)methanone] yielded an IC50 of 100 to 1000 nM.
In the case of CC(C)NCC1CN(C(=O)c2ccc3c(Oc4ccc(C(F)(F)F)cc4)cccc3c2)C1 [Compound 34, (3-((Isopropylamino)methyl)azetidin-1-yl)(5-(4-(trifluoromethyl)phenoxy)naphthalen-2-yl)methanone], the IC50 is reported as 100 to 1000 nM.
For COCCNCC1CN(C(=O)c2ccc3c(Oc4ccc(C(F)(F)F)cc4)cccc3c2)C1 [Compound 35, (3-(((2-Methoxyethyl)amino)methyl)azetidin-1-yl)(5-(4-(trifluoromethyl)phenoxy)naphthalen-2-yl)methanone], the IC50 was 100 to 1000 nM.
For O=C(c1ccc2c(Oc3ccc(C(F)(F)F)cc3)cccc2c1)N1CC(CNCCF)C1 [Compound 36, (3-(((2-Fluoroethyl)amino)methyl)azetidin-1-yl)(5-(4-(trifluoromethyl)phenoxy)naphthalen-2-yl)methanone], the IC50 was 100 to 1000 nM.
Work on O=C(c1ccc2c(Oc3ccc(C(F)(F)F)cc3)cccc2c1)N1CC(CNCCO)C1 [Compound 37, (3-(((2-Hydroxyethyl)amino)methyl)azetidin-1-yl)(5-(4-(trifluoromethyl)phenoxy)naphthalen-2-yl)methanone] yielded an IC50 of at most 100 nM.
Work on O=C(c1ccc2c(Oc3ccc(C(F)(F)F)cc3)cccc2c1)N1CC(CNCC(F)F)C1 [Compound 38, (3-(((2,2-Fifluoroethyl)amino)methyl)azetidin-1-yl)(5-(4-(trifluoromethyl)phenoxy)naphthalen-2-yl)methanone] yielded an IC50 of at most 100 nM.
O=C(c1ccc2c(Oc3ccc(C(F)(F)F)cc3)cccc2c1)N1CC(Nc2ccccn2)C1 [Compound 39, (3-(Pyridin-2-ylamino)azetidin-1-yl)(5-(4-(trifluoromethyl)phenoxy)naphthalen-2-yl)methanone] was tested, and the IC50 was 100 to 1000 nM.
With O=C(c1ccc2c(Oc3ccc(C(F)(F)F)cc3)cccc2c1)N1CC(CNc2ccccn2)C1 [Compound 40, (3-((Pyridin-2-ylamino)methyl)azetidin-1-yl)(5-(4-(trifluoromethyl)phenoxy)naphthalen-2-yl)methanone] the IC50 was at most 100 nM.
O=C(c1ccc2c(Oc3ccc(C(F)(F)F)cc3)cccc2c1)N1CC2(C1)CN(c1ccccn1)C2 [Compound 41, (6-(Pyridin-2-yl)-2,6-diazaspiro[3.3]heptan-2-yl)(5-(4-(trifluoromethyl)phenoxy)naphthalen-2-yl)methanone] showed an IC50 of 1000 to 3000 nM.
For CN(C)C(=O)c1ccc2c(Oc3ccc(C(F)(F)F)cc3)cccc2c1 [Compound 42, N,N-dimethyl-5-(4-(trifluoromethyl)phenoxy)naphthalene-2-carboxamide], the IC50 was 100 to 1000 nM.
Work on CN(C#N)C(=O)c1ccc2c(Oc3ccc(C(F)(F)F)cc3)cccc2c1 [Compound 43, N-cyano-N-methyl-5-(4-(trifluoromethyl)phenoxy)-2-naphthamide] yielded an IC50 of at most 100 nM.
